Source: US8637672B2 (Deciphera Pharmaceuticals, LLC, priority 2010, dated 2014)

Tests used:
Type in all cases: biochemical
c-MET kinase = molecular target: T1, c-MET kinase (Homo sapiens, UniProt P08581); experiment: c-MET Kinase Assay; conditions: for fold potency versus c-MET kinase relative to corresponding mono-fluoro analog: Compound D vs Compound E, Compound G vs Compound F; for IC50: methods of the Biological Data section
T1 construct: His6 with TEV-site leader (N); purchased Invitrogen PV3143
Procedure: Activity of c-MET kinase (Seq. ID No. 2) was determined by following the production of ADP from the kinase reaction through coupling with the pyruvate kinase/lactate dehydrogenase system (e.g., Schindler et al. Science 2000, 289, pp. 1938-1942). In this assay, the oxidation of NADH (thus the decrease at A340 nm) was continuously monitored spectrophotometrically. The reaction mixture (100 μl) contained c-MET (c-MET residues: 956-1390, from Invitrogen, catalogue #PV3143, 6 nM), polyE4Y (1 mg/mL), MgCl2 (10 mM), pyruvate kinase (4 units), lactate dehydrogenase (0.7 units), phosphoenol pyruvate (1 mM), and NADH (0.28 mM) in 90 mM Tris buffer containing 0.25 mM DTT, 0.2% octyl-glucoside and 1% DMSO, 7.5. Test compounds were incubated with c-MET (Seq. ID No. 2) and other reaction reagents at 22° C. for 0.5 h before ATP (100 μM) was added to start the reaction. The absorption at 340 nm was monitored continuously for 2 hours at 30° C. on Polarstar Optima plate reader (BMG). The reaction rate was calculated using the 1.0 to 2.0 h time frame. Percent inhibition was obtained by comparison of reaction rate with that of a control (i.e., with no test compound). IC50 values were calculated from a series of percent inhibition values determined at a range of inhibitor concentrations using software routines as implemented in the GraphPad Prism software package.

RON kinase = molecular target: T2, RON kinase (Homo sapiens, UniProt Q04912); experiment: RON Kinase Assay; conditions: for IC50: methods of the Biological Data section; for Fold Selectivity RON/MET: ratio RON IC50 / MET IC50
T2 construct: GST tagged recombinant human RON, amino acids 983-1400; GST; host or cells: insect cells
T2 sequence (Q04912 983-1400): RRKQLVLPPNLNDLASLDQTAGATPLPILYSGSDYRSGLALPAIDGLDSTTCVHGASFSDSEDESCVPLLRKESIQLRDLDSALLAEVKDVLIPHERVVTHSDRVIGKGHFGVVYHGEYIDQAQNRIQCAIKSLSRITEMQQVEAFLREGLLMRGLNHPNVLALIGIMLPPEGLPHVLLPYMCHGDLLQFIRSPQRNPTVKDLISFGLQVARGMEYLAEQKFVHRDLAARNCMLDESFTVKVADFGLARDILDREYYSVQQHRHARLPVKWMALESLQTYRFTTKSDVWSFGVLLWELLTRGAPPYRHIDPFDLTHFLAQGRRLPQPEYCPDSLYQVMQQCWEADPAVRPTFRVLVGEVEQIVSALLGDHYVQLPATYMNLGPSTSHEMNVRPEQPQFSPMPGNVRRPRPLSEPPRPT
Procedure: Activity of RON kinase was determined by a radioactive filtration binding assay where incorporation of ^33P from ^33P-γ-ATP to the substrate was measured. In this assay, detection of ^33P was indicative of RON phosphorylation activity which was directly proportional to the amount of phosphorylated peptide substrate ([…], SEQ ID NO: 4). Initially, the reaction mixture contained: 400 nM RON, 20 mM HEPES, pH 7.5, 10 mM MgCl2, 2 mM MnCl2, 1 mM EGTA, 0.02% Brij 35, 0.02 mg/mL BSA, 0.1 mM Na3VO4, and 2 mM DTT. The reaction mixture was incubated with compound at room temperature for 30 minutes. To initiate the reaction, an equal volume of 20 μM ATP and 0.4 mg/mL peptide substrate were added and then incubated at room temperature for 2 hours. The final assay conditions were: 200 nM RON, 10 μM ATP, 0.2 mg/mL substrate 20 mM HEPES, pH 7.5, 10 mM MgCl2, 1 mM EGTA, 0.02% Brij 35, 0.02 mg/mL BSA, 0.1 mM Na3VO4, 2 mM DTT, and 1% DMSO. IC50 values were calculated from a series of % Activity values determined at a range of inhibitor concentrations using software routines as implemented in the GraphPad Prism software package.
GST tagged recombinant human RON, amino acids 983-1400. Expressed in insect cells.

VEGFR-1 (FLT1 kinase) = molecular target: T3, VEGFR-1 (FLT1 kinase) (Homo sapiens, UniProt P17948); experiment: FLT1 Kinase Assay (VEGFR-1); conditions: for IC50: methods of the Biological Data section; for Fold Selectivity VEGR-1/MET: ratio VEGFR-1 IC50 / MET IC50
T3 construct: GST tagged recombinant human FLT1, amino acids 781-1338; GST; host or cells: insect cells
T3 sequence (P17948 781-1338): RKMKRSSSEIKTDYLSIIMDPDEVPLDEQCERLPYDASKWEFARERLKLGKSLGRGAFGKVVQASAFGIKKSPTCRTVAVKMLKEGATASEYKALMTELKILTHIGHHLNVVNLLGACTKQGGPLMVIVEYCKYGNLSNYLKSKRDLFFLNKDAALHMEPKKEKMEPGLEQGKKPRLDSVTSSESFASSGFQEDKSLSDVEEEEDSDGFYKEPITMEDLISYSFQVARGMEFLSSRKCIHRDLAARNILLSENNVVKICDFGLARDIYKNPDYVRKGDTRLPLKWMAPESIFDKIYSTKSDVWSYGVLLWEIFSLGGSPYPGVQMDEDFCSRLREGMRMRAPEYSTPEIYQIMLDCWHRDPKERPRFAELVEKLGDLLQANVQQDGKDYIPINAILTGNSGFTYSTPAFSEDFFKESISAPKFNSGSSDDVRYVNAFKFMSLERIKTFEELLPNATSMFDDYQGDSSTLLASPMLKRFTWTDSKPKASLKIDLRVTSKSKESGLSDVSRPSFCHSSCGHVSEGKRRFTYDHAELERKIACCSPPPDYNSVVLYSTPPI
Procedure: Activity of FLT1 kinase was determined by a radioactive filtration binding assay where incorporation of ^33P from ^33P-γ-ATP to the substrate is measured. In this assay, detection of ^33P was indicative of FLT1 phosphorylation activity which was directly proportional to the amount of phosphorylated peptide substrate poly[Glu:Tyr] (4:1). Initially, the reaction mixture contained: 400 nM FLT1, 20 mM HEPES, pH 7.5, 10 mM MgCl2, 2 mM MnCl2, 1 mM EGTA, 0.02% Brij 35, 0.02 mg/mL BSA, 0.1 mM Na3VO4, and 2 mM DTT. The reaction mixture was incubated with compound at room temperature for 30 minutes. To initiate the reaction, an equal volume of 20 μM ATP and 0.2 mg/mL peptide substrate were added and then incubated at room temperature for 2 hours. The final assay conditions were: 200 nM FLT1, 10 μM ATP, 0.1 mg/ml, substrate 20 mM HEPES, pH 7.5, 10 mM MgCl2, 1 mM EGTA, 0.02% Brij 35, 0.02 mg/mL BSA, 0.1 mM Na3VO4, 2 mM DTT, and 1% DMSO. IC50 values were calculated from a series of % Activity values determined at a range of inhibitor concentrations using software routines as implemented in the Graph Pad Prism software package.
GST tagged recombinant human FLT1, amino acids 781-1338. Expressed in insect cells.

T1 sequence (P08581 with tags, fused parts or gaps): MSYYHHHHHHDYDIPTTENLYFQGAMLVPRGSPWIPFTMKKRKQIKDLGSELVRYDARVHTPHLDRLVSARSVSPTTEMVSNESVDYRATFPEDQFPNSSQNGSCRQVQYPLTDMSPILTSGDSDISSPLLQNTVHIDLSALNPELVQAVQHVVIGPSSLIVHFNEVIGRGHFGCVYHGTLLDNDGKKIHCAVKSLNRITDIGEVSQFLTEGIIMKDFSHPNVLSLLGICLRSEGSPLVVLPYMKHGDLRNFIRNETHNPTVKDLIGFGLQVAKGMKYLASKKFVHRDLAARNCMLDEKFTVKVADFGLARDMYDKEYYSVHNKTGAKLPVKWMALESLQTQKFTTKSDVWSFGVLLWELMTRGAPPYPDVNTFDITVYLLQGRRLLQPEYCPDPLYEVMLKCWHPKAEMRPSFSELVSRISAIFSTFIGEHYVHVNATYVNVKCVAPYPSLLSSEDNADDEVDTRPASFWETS

Row | SMILES | fold potency versus c-MET kinase relative to corresponding mono-fluoro analog (c-MET kinase) [fold] | IC50 (c-MET kinase) [nM] | IC50 (RON kinase) [nM] | Fold Selectivity RON/MET (RON kinase) | IC50 (VEGFR-1 (FLT1 kinase)) [nM] | Fold Selectivity VEGR-1/MET (VEGFR-1 (FLT1 kinase))
1 | CC(=O)Nc1cc(Oc2cc(F)c(NC(=O)C3(C(=O)Nc4ccc(F)cc4)CC3)cc2F)ccn1 [Compound D, N-(4-(2-acetamidopyridin-4-yloxy)-2,5-difluorophenyl)-N′-(4-fluorophenyl)cyclopropane-1,1-dicarboxamide] | 6.5 | 4 | ≥ 5000 | >1,250 | 79 | 19.75
2 | CC(=O)Nc1cc(Oc2ccc(NC(=O)C3(C(=O)Nc4ccc(F)cc4)CC3)c(F)c2)ccn1 [Compound E, N-(4-(2-acetamidopyridin-4-yloxy)-2-fluorophenyl)-N′-(4-fluorophenyl)cyclopropane-1,1-dicarboxamide] | – | 26 | 100 | 3.85 | 160 | 6.15
3 | CN1CCN(C2CCN(C(=O)Nc3cc(Oc4cc(F)c(NC(=O)C5(C(=O)Nc6ccc(F)cc6)CC5)cc4F)ccn3)CC2)CC1 [Compound G] | 1.1 | – | – | 0.04 | – | 0.45
4 | O=C(Nc1cc(Oc2cc(F)c(NC(=O)C3(C(=O)Nc4ccc(F)cc4)CC3)cc2F)ccn1)N1CC(CO)C1 [Compound H] | – | – | – | 0.75 | – | 3.5
